According to US20230085307A1, “PYRIDAZINONE COMPOUND AND HERBICIDE” (NISSAN CHEMICAL CORPORATION, priority 2019, published 2023):

Legend:
[1] = test system: late watergrass; assay: Test Example 1: herbicidal activity, application before weed generation under submerged conditions (Table 16, symbol A); type: in vivo, late watergrass (Echinochloa oryzicola); conditions: amount of applied herbicide 320 g/ha
Procedure, shortened: (§1)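 Emulsion formulation, water-diluted to set dose, was put onto the flooded surface (4 cm depth, alluvial soil) the same day weeds were sown and 2.5-leaf rice transplanted. After 3 weeks at 25-30 °C under glass, each species was rated 0 (≤5% kill) to 5 (≥90% kill).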

[2] = test system: Japanese bulrush; assay: Test Example 1: herbicidal activity, application before weed generation under submerged conditions (Table 16, symbol B); type: in vivo, Japanese bulrush (Schoenoplectus juncoides); conditions: amount of applied herbicide 320 g/ha
Procedure, shortened: as §1

[3] = test system: barnyard grass; assay: Test Example 3: herbicidal effect by foliage application, Wagner pot (Table 18, symbol H); type: in vivo, barnyard grass (Echinochloa crus-galli); conditions: 320 g/ha
Procedure, shortened: (§2)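 Plants were sown in alluvial soil held under 0.1–0.5 cm standing water and grown 14 days in a greenhouse at 25–30 °C. An emulsifiable formulation, water-diluted to the set dose, was then sprayed onto the foliage, and effects were scored three weeks later using previously defined criteria.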

[4] = test system: rice flat sedge; assay: Test Example 3: herbicidal effect by foliage application, Wagner pot (Table 18, symbol E); type: in vivo, rice flat sedge (Cyperus iria); conditions: 320 g/ha
Procedure, shortened: as §2

[5] = test system: southern crabgrass; assay: Test Example 4: herbicidal effect by soil treatment (Table 19, symbol F); type: in vivo, southern crabgrass (Digitaria ciliaris); conditions: amount of applied herbicide 320 g/ha
Procedure, shortened: (§3)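 Step 1: sow seeds in sterilized diluvial soil, cover ~1.5 cm. Step 2: spray diluted emulsion onto soil surface at predetermined rate. Step 3: greenhouse, 25–30° C, three weeks. Step 4: grade effect on each plant by earlier criteria.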

[6] = test system: green foxtail; assay: Test Example 4: herbicidal effect by soil treatment (Table 19, symbol G); type: in vivo, green foxtail (Setaria viridis); conditions: amount of applied herbicide 320 g/ha
Procedure, shortened: as §3

[7] = test system: Italian ryegrass; assay: Test Example 4: herbicidal effect by soil treatment (Table 19, symbol K); type: in vivo, Italian ryegrass (Lolium multiflorum); conditions: amount of applied herbicide 320 g/ha
Procedure, shortened: as §3

[8] = test system: windgrass; assay: Test Example 4: herbicidal effect by soil treatment (Table 19, symbol L); type: in vivo, windgrass (Apera spica-venti); conditions: amount of applied herbicide 320 g/ha
Procedure, shortened: as §3

[9] = test system: velvetleaf; assay: Test Example 4: herbicidal effect by soil treatment (Table 19, symbol M); type: in vivo, velvetleaf (Abutilon theophrasti); conditions: amount of applied herbicide 320 g/ha
Procedure, shortened: as §3

[10] = test system: persian speedwell; assay: Test Example 4: herbicidal effect by soil treatment (Table 19, symbol R); type: in vivo, Persian speedwell (Veronica persica); conditions: amount of applied herbicide 320 g/ha
Procedure, shortened: as §3

[11] = test system: southern crabgrass; assay: Test Example 5: herbicidal effect by foliage application, plastic box (Table 20, symbol F); type: in vivo, southern crabgrass (Digitaria ciliaris); conditions: foliage application, 320 g/ha, three weeks after application
Procedure, shortened: (§4)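 Foliar spray test: emulsion formulation diluted in water to a set application rate, sprayed onto 14-day-old plants raised in diluvial soil at 25° C to 30° C under glass. Both herbicidal effect and crop effect rated visually three weeks later.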

[12] = test system: green foxtail; assay: Test Example 5: herbicidal effect by foliage application, plastic box (Table 20, symbol G); type: in vivo, green foxtail (Setaria viridis); conditions: foliage application, 320 g/ha, three weeks after application
Procedure, shortened: as §4

[13] = test system: barnyard grass; assay: Test Example 5: herbicidal effect by foliage application, plastic box (Table 20, symbol H); type: in vivo, barnyard grass (Echinochloa crus-galli); conditions: foliage application, 320 g/ha, three weeks after application
Procedure, shortened: as §4

[14] = test system: wild oat; assay: Test Example 5: herbicidal effect by foliage application, plastic box (Table 20, symbol I); type: in vivo, wild oat (Avena fatua); conditions: foliage application, 320 g/ha, three weeks after application
Procedure, shortened: as §4

[15] = test system: blackgrass; assay: Test Example 5: herbicidal effect by foliage application, plastic box (Table 20, symbol J); type: in vivo, blackgrass (Alopecurus myosuroides); conditions: foliage application, 320 g/ha, three weeks after application
Procedure, shortened: as §4

[16] = test system: windgrass; assay: Test Example 5: herbicidal effect by foliage application, plastic box (Table 20, symbol L); type: in vivo, windgrass (Apera spica-venti); conditions: foliage application, 320 g/ha, three weeks after application
Procedure, shortened: as §4

[17] = test system: velvetleaf; assay: Test Example 5: herbicidal effect by foliage application, plastic box (Table 20, symbol M); type: in vivo, velvetleaf (Abutilon theophrasti); conditions: foliage application, 320 g/ha, three weeks after application
Procedure, shortened: as §4

[18] = test system: redroot pigweed; assay: Test Example 5: herbicidal effect by foliage application, plastic box (Table 20, symbol N); type: in vivo, redroot pigweed (Amaranthus retroflexus); conditions: foliage application, 320 g/ha, three weeks after application
Procedure, shortened: as §4

Row | Compound | Herbicidal effect, A: late watergrass [1] | Herbicidal effect, B: Japanese bulrush [2] | herbicidal effect on barnyard grass (H) [3] | herbicidal effect on rice flat sedge (E) [4] | F: southern crabgrass, herbicidal effect grade [5] | G: green foxtail, herbicidal effect grade [6] | K: Italian ryegrass, herbicidal effect grade [7] | L: windgrass, herbicidal effect grade [8] | M: velvetleaf, herbicidal effect grade [9] | R: persian speedwell, herbicidal effect grade [10] | F: southern crabgrass, herbicidal effect grade [11] | G: green foxtail, herbicidal effect grade [12] | H: barnyard grass, herbicidal effect grade [13] | I: wild oat, herbicidal effect grade [14] | J: blackgrass, herbicidal effect grade [15] | L: windgrass, herbicidal effect grade [16] | M: velvetleaf, herbicidal effect grade [17] | N: redroot pigweed, herbicidal effect grade [18]
1 | CCCC(=O)Oc1c(C)nn(C)c(=O)c1-c1c(-c2ccc(OC)cc2)sc2cc(OC)ccc12 [3-069] | 0 (Herbicidal rate of 5% or less (almost no effect)) | 3 (Herbicidal rate of 40% or more and less than 70%) | 0 (Herbicidal rate of 5% or less (almost no effect)) | 3 (Herbicidal rate of 40% or more and less than 70%) | 0 (Herbicidal rate of 5% or less (almost no effect)) | 2 (Herbicidal rate of 20% or more and less than 40%) | 0 (Herbicidal rate of 5% or less (almost no effect)) | 0 (Herbicidal rate of 5% or less (almost no effect)) | 0 (Herbicidal rate of 5% or less (almost no effect)) | 4 (Herbicidal rate of 70% or more and less than 90%) | 0 (Herbicidal rate of 5% or less (almost no effect)) | 0 (Herbicidal rate of 5% or less (almost no effect)) | 2 (Herbicidal rate of 20% or more and less than 40%) | 0 (Herbicidal rate of 5% or less (almost no effect)) | 0 (Herbicidal rate of 5% or less (almost no effect)) | 3 (Herbicidal rate of 40% or more and less than 70%) | 5 (Herbicidal rate of 90% or more (almost completely withered)) | 5 (Herbicidal rate of 90% or more (almost completely withered))
2 | CCOc1ccc(-c2sc3cc(OC)ccc3c2-c2c(O)c(C)nn(C)c2=O)cc1 [3-072] | 1 (Herbicidal rate of 5% or more and less than 20%) | 5 (Herbicidal rate of 90% or more (almost completely withered)) | 4 (Herbicidal rate of 70% or more and less than 90%) | 4 (Herbicidal rate of 70% or more and less than 90%) | 0 (Herbicidal rate of 5% or less (almost no effect)) | 0 (Herbicidal rate of 5% or less (almost no effect)) | 0 (Herbicidal rate of 5% or less (almost no effect)) | 0 (Herbicidal rate of 5% or less (almost no effect)) | 0 (Herbicidal rate of 5% or less (almost no effect)) | 5 (Herbicidal rate of 90% or more (almost completely withered)) | 0 (Herbicidal rate of 5% or less (almost no effect)) | 3 (Herbicidal rate of 40% or more and less than 70%) | 3 (Herbicidal rate of 40% or more and less than 70%) | 0 (Herbicidal rate of 5% or less (almost no effect)) | 0 (Herbicidal rate of 5% or less (almost no effect)) | 0 (Herbicidal rate of 5% or less (almost no effect)) | 3 (Herbicidal rate of 40% or more and less than 70%) | 5 (Herbicidal rate of 90% or more (almost completely withered))
3 | COc1ccc2c(-c3c(O)c(C)nn(C)c3=O)c(-c3ccc(F)cc3OC)sc2c1 [3-076] | 4 (Herbicidal rate of 70% or more and less than 90%) | 5 (Herbicidal rate of 90% or more (almost completely withered)) | 5 (Herbicidal rate of 90% or more (almost completely withered)) | 5 (Herbicidal rate of 90% or more (almost completely withered)) | 0 (Herbicidal rate of 5% or less (almost no effect)) | 5 (Herbicidal rate of 90% or more (almost completely withered)) | 4 (Herbicidal rate of 70% or more and less than 90%) | 5 (Herbicidal rate of 90% or more (almost completely withered)) | 0 (Herbicidal rate of 5% or less (almost no effect)) | 5 (Herbicidal rate of 90% or more (almost completely withered)) | 3 (Herbicidal rate of 40% or more and less than 70%) | 5 (Herbicidal rate of 90% or more (almost completely withered)) | 3 (Herbicidal rate of 40% or more and less than 70%) | 4 (Herbicidal rate of 70% or more and less than 90%) | 4 (Herbicidal rate of 70% or more and less than 90%) | 5 (Herbicidal rate of 90% or more (almost completely withered)) | 3 (Herbicidal rate of 40% or more and less than 70%) | 5 (Herbicidal rate of 90% or more (almost completely withered))
4 | CCOc1ccccc1-c1sc2cc(OC)ccc2c1-c1c(O)c(C)nn(CC)c1=O [3-085] | 5 (Herbicidal rate of 90% or more (almost completely withered)) | 5 (Herbicidal rate of 90% or more (almost completely withered)) | 5 (Herbicidal rate of 90% or more (almost completely withered)) | 4 (Herbicidal rate of 70% or more and less than 90%) | 4 (Herbicidal rate of 70% or more and less than 90%) | 3 (Herbicidal rate of 40% or more and less than 70%) | 0 (Herbicidal rate of 5% or less (almost no effect)) | 0 (Herbicidal rate of 5% or less (almost no effect)) | 0 (Herbicidal rate of 5% or less (almost no effect)) | 5 (Herbicidal rate of 90% or more (almost completely withered)) | 5 (Herbicidal rate of 90% or more (almost completely withered)) | 4 (Herbicidal rate of 70% or more and less than 90%) | 4 (Herbicidal rate of 70% or more and less than 90%) | 4 (Herbicidal rate of 70% or more and less than 90%) | 4 (Herbicidal rate of 70% or more and less than 90%) | 4 (Herbicidal rate of 70% or more and less than 90%) | 5 (Herbicidal rate of 90% or more (almost completely withered)) | 5 (Herbicidal rate of 90% or more (almost completely withered))
